Measured values published in PubChem BioAssay (NCI).
Several values for one entry are separate records, joined by “and”; a condition that tells them apart may be missing. Identical values can stand only once.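 All cell lines were grown in 96-well plates and treated with compound for 48 hours. Here, GI50 denotes the concentration required for 50% inhibition of growth. At the TGI there is no net growth.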

Tests used:
Assay in all cases: growth of human tumour cells (NCI), 48 h
OVCAR-5 ovarian = test system: OVCAR-5 ovarian
RXF 393 renal = test system: RXF 393 renal
SF-268 CNS = test system: SF-268 CNS
SK-MEL-5 melanoma = test system: SK-MEL-5 melanoma
COLO 205 colon = test system: COLO 205 colon
K-562 leukemia = test system: K-562 leukemia
HS 578T breast = test system: HS 578T breast
HOP-92 NSCLC = test system: HOP-92 NSCLC
SNB-19 CNS = test system: SNB-19 CNS
SF-539 CNS = test system: SF-539 CNS

Structure (SMILES)	TGI (OVCAR-5 ovarian)	TGI (RXF 393 renal)	TGI (SF-268 CNS)	TGI (SK-MEL-5 melanoma)	TGI (COLO 205 colon)	TGI (K-562 leukemia)	TGI (HS 578T breast)	TGI (HOP-92 NSCLC)	TGI (SNB-19 CNS)	TGI (SF-539 CNS)	GI50 (OVCAR-5 ovarian)	GI50 (RXF 393 renal)	GI50 (SF-268 CNS)	GI50 (SK-MEL-5 melanoma)	GI50 (COLO 205 colon)	GI50 (K-562 leukemia)	GI50 (HS 578T breast)	GI50 (HOP-92 NSCLC)	GI50 (SNB-19 CNS)	GI50 (SF-539 CNS)
NS(=O)(=O)c1ccc(N=Nc2ccc[nH]c2=O)cc1	> 100 µM	> 100 µM	> 100 µM	> 100 µM	> 100 µM	> 100 µM	> 100 µM	> 100 µM	> 100 µM	> 100 µM										
C=C1c2nc3ccccc3n2C=C(c2cccc(Cl)c2)N1Cc1ccc(OC)cc1	> 30.9 µM	13.1 µM	> 57.2 µM	3.55 µM	35.7 µM	5.25 µM	> 100 µM	> 82.4 µM	> 100 µM	4.56 µM	5.84 µM	1.16 µM	1.05 µM	0.276 µM	9.14 µM	0.29 µM	0.565 µM	2.36 µM	1.04 µM	0.745 µM
COc1cccc2c1C(=O)c1c(O)c3c(c(O)c1C2=O)C[C@@](O)(C(=O)CO)CC3OC1CC(N)C(OC2CCCCO2)C(C)O1 (stereo partly drawn)	2.08 µM and 8.5 µM			0.179 µM and 1.08 µM		6.58 µM	1.11 µM	0.537 µM	2.54 µM and 3.06 µM		0.0682 µM	0.12 µM	0.00705 µM	0.0291 µM	0.02 µM	0.0247 µM			0.033 µM	0.00352 µM
CN1CCC2(CC1)N=C(SCC(=O)Nc1cnc3ccccc3c1)C(c1ccc(Br)cc1)=N2	7.33 µM	4.29 µM	14.7 µM	3.07 µM	3.35 µM	5.05 µM	7.27 µM	3.35 µM	7.83 µM	3.41 µM	2.43 µM	1.77 µM	3.46 µM	1.68 µM	1.64 µM	1.89 µM	2.23 µM	1.22 µM	2.58 µM	1.74 µM
N#C/C(=C\c1cc(O)c(O)c(O)c1)C(N)=O	> 100 µM	> 100 µM	> 100 µM	> 100 µM	> 100 µM	> 100 µM	> 100 µM	> 100 µM	> 100 µM	> 100 µM										
CC1=CC(=O)N(c2cccc3c(N4C(=O)C=C(C)C4=O)cccc23)C1=O	26.3 µM	4.4 µM	23.8 µM	36.3 µM	2.65 µM	9.45 µM	> 100 µM	21 µM	> 100 µM	26.2 µM	8.35 µM	1.96 µM	6.37 µM	15.5 µM	0.988 µM	1.9 µM	18.6 µM	2.5 µM	53.3 µM	3.37 µM
COc1ccc2c(c1)C(=Nc1ccc(F)c(Cl)c1)c1c-2c(Nc2ccc(F)c(Cl)c2)nc2ccccc12	> 100 µM	37.1 µM	> 100 µM	> 100 µM	> 100 µM	37 µM	98.5 µM	> 100 µM	> 100 µM	> 74.9 µM	> 76.6 µM	0.579 µM	29.7 µM	> 100 µM	> 100 µM	4.19 µM	35.3 µM	33.8 µM	44.8 µM	27 µM
c1ccc(-c2[nH]ncc2-c2ccnc(-c3ccc(OCCN4CCOCC4)cc3)c2)nc1	> 25 µM	> 25 µM	> 25 µM	> 25 µM	> 25 µM	> 25 µM	> 25 µM	> 25 µM	> 25 µM	> 25 µM	> 25 µM	> 25 µM	> 25 µM	> 25 µM	> 25 µM	13.2 µM	> 25 µM	> 25 µM	> 25 µM	> 25 µM
O=C1/C(=C\c2ccc(F)cc2)CN(C(=O)c2ccccc2F)C/C1=C\c1ccc(F)cc1	4.04 µM	3.54 µM	4.97 µM	2.83 µM	3.54 µM		20.3 µM	5.63 µM	3.55 µM	3.2 µM	1.88 µM	1.78 µM	2.02 µM	1.45 µM	1.86 µM	0.414 µM	3.66 µM	1.86 µM	1.58 µM	1.72 µM
O=C(Nc1ccncc1)C(=O)c1cn(S(=O)(=O)c2cccc(Cl)c2)c2ccccc12	> 100 µM	21.2 µM	> 100 µM	39.5 µM	70.3 µM	> 100 µM	> 100 µM	23.1 µM	> 100 µM	43.9 µM	11.5 µM	4.34 µM	8.36 µM	3.61 µM	24.8 µM	2.5 µM	77.1 µM	3.31 µM	27.5 µM	4.61 µM
O=C1C=C(NCCO)c2nccc3c2c1nc1ccccc13	> 100 µM	89.4 µM	> 100 µM	35 µM	> 100 µM	> 100 µM	> 100 µM	> 100 µM	> 100 µM	73.1 µM	28.6 µM	28.2 µM	26.4 µM	16.3 µM	14.8 µM	31.5 µM	25.5 µM	> 100 µM	34 µM	22.9 µM
Cc1ccc(N(C=O)c2c([N+](=O)[O-])cc([N+](=O)[O-])c3c2=[N+]([O-])CN=3)cc1	> 100 µM	42 µM	> 100 µM	30.1 µM	68.1 µM	82.7 µM	> 100 µM	60.1 µM	> 100 µM	> 100 µM										
COc1cc(-c2nn(-c3ccc(NC(=O)Nc4cc(C(F)(F)F)cc(C(F)(F)F)c4)cc3)cc2-c2ccncc2)ccc1Cl	5.16 µM	3.58 µM	7.3 µM	2.98 µM	3.32 µM	> 100 µM	> 100 µM	4.32 µM	3.88 µM	3.71 µM	1.91 µM	1.61 µM	2.47 µM	1.53 µM	1.6 µM	2.48 µM	2.94 µM	1.07 µM	1.8 µM	1.64 µM
